Source: US20250304563A1, “ACTIVATORS OF EFFECTOR T CELLS” (Orum Therapeutics, Inc., priority 2022, published 2025)

Columns and labels:
Human primary T cells [1] = assay: T cell activation: secreted IFN-y; type: cell-based; conditions: 48 hours, fold over background normalized to Compound 141A; for IFN-y 1 nM: 1 nM compound; for IFN-y 10 nM: 10 nM compound; for IFN-y 100 nM: 100 nM compound
In short: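 Values are binned ranges (A–D) of fold increase over anti-CD3/CD28 background, normalized to a reference compound, for IFN-γ in supernatants measured by bead array. Pan-T cells from donor PBMC or LeukoPaks were stimulated on anti-CD3-coated wells (10 μg/mL coating) in serum-free medium with compound for 48 h at 37 °C.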

Human primary T cells [2] = assay: T cell activation: CD69 surface expression by flow cytometry; type: cell-based; conditions: fold over anti-CD3 stimulated background normalized to Compound 141A; for CD69 10 nM: 10 nM compound; for CD69 100 nM: 100 nM compound; for CD69 1 nM: 1 nM compound
In short: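 Read-out is flow-cytometric CD69 surface staining, expressed as fold increase over anti-CD3-stimulated background and normalized to Compound 141A. Human pan T cells from PBMC or LeukoPaks were plated on OKT3-coated wells in serum-free XVivo-15. Compound dilutions were added for 48 h at 37° C, 5% CO2.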

Human primary T cells [3] = assay: T cell activation: secreted IL-2; type: cell-based; conditions: 48 hours, fold over background normalized to Compound 141A; for IL-2 1 nM: 1 nM compound; for IL-2 10 nM: 10 nM compound; for IL-2 100 nM: 100 nM compound
In short: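 IL-2 values are fold over anti-CD3/CD28 background, normalized to a reference compound and sorted into ranges. They come from supernatants of human pan-T cells captured on anti-CD3-coated plates and exposed 48 h, 37° C., to duplicate compound dilutions, measured with cytometric beads.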

[4] = biological target: Cbl-b (36-427 aa truncated form, N-terminus Avi-tag) (Homo sapiens (Human), UniProt Q13191); assay: Cbl-b binding: TR-FRET displacement of BODIPY-FL probe
In short: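 IC50 from loss of terbium–BODIPY-FL TR-FRET signal as compounds compete off a fluorescent Cbl-b inhibitor probe (1 uM) for 1 h at RT. Protein: N-Avi-tagged human Cbl-b 36-427 on streptavidin-terbium, 20 mM HEPES pH 7.5 buffer.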

Chain of Cbl-b (36-427 aa truncated form, N-terminus Avi-tag) (Q13191 36-427): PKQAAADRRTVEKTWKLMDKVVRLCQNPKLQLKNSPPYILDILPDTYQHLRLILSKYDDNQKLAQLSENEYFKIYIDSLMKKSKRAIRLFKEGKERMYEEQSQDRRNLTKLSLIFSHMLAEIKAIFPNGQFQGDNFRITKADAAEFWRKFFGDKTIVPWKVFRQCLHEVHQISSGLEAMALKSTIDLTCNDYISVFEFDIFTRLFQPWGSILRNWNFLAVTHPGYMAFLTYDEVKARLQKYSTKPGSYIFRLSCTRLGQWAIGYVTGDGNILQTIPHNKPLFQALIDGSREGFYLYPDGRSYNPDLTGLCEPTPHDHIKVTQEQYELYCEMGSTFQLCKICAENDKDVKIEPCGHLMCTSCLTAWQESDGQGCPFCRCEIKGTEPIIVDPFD

| SMILES | IFN-y 1 nM (Human primary T cells [1]) | IFN-y 10 nM (Human primary T cells [1]) | IFN-y 100 nM (Human primary T cells [1]) | CD69 10 nM (Human primary T cells [2]) | CD69 100 nM (Human primary T cells [2]) | IL-2 1 nM (Human primary T cells [3]) | IL-2 10 nM (Human primary T cells [3]) | IL-2 100 nM (Human primary T cells [3]) | IC50 [4] | CD69 1 nM (Human primary T cells [2]) |
| --- | --- | --- | --- | --- | --- | --- | --- | --- | --- | --- |
| CCC(CC#N)Nc1cc(C2(Cc3nncn3C)COC2)cc(N2Cc3c(cc(CN4CCC[C@H](C)C4)cc3C(F)(F)F)C2=O)n1.O=C(O)C(F)(F)F (stereo partly drawn) [Compound 135, 3-((4-(3-((4-methyl-4H-1,2,4-triazol-3-yl)methyl)oxetan-3-yl)-6-(6-(((S)-3-methylpiperidin-1-yl)methyl)-1-oxo-4-(trifluoromethyl)isoindolin-2-yl)pyridin-2-yl)amino)pentanenitrile; trifluoroacetic acid] | C (values between 0.10 and 0.30: range “C”) | B (values between 0.31 and 1.00: range “B;”) | B (values between 0.31 and 1.00: range “B;”) | B (values between 0.61 and 0.80: range “B;”) | A (values between 0.81 and 1.10: range “A”) | C (values between 0.10 and 0.30: range “C”) | B (values between 0.31 and 0.79: range “B”) | B (values between 0.31 and 0.79: range “B”) | 5.01 to 20 nM | – |
| C[C@H]1CCCN(Cc2cc3c(c(C(F)(F)F)c2)CN(c2cc(C4(Cc5nncn5C)COC4)cc(N4CCN(C(=O)CCCN=[N+]=[N-])CC4)n2)C3=O)C1 [Compound 136, (S)-2-(6-(4-(4-azidobutanoyl)piperazin-1-yl)-4-(3-((4-methyl-4H-1,2,4-triazol-3-yl)methyl)oxetan-3-yl)pyridin-2-yl)-6-((3-methylpiperidin-1-yl)methyl)-4-(trifluoromethyl)isoindolin-1-one] | C (values between 0.10 and 0.30: range “C”) | B (values between 0.31 and 1.00: range “B;”) | B (values between 0.31 and 1.00: range “B;”) | B (values between 0.61 and 0.80: range “B;”) | A (values between 0.81 and 1.10: range “A”) | C (values between 0.10 and 0.30: range “C”) | B (values between 0.31 and 0.79: range “B”) | B (values between 0.31 and 0.79: range “B”) | 5.01 to 20 nM | – |
| CC#CC(=O)N1CCN(c2cc(C3(Cc4nncn4C)COC3)cc(N3Cc4c(cc(CN5CCC[C@H](C)C5)cc4C(F)(F)F)C3=O)n2)CC1 [Compound 137] | B (values between 0.31 and 1.00: range “B;”) | B (values between 0.31 and 1.00: range “B;”) | B (values between 0.31 and 1.00: range “B;”) | B (values between 0.61 and 0.80: range “B;”) | A (values between 0.81 and 1.10: range “A”) | C (values between 0.10 and 0.30: range “C”) | B (values between 0.31 and 0.79: range “B”) | B (values between 0.31 and 0.79: range “B”) | 5.01 to 20 nM | – |
| CCNc1cc(C2(Cc3nncn3C)COC2)cc(N2Cc3c(cc([C@H](CSC)N4CCC[C@H](C)C4)cc3C(F)(F)F)C2=O)n1 [Compound 141A, 2-[6-(ethylamino)-4-{3-[(4-methyl-1,2,4-triazol-3-yl)methyl]oxetan-3-yl}pyridin-2-yl]-6-[(1R)-1-[(3S)-3-methylpiperidin-1-yl]-2-(methylsulfanyl)ethyl]-4-(trifluoromethyl)-3H-isoindol-1-one] | B (values between 0.31 and 1.00: range “B;”) | B (values between 0.31 and 1.00: range “B;”) | A (fold over background between 1.10 and 2.00: range “A”) | A (values between 0.81 and 1.10: range “A”) | A (values between 0.81 and 1.10: range “A”) | B (values between 0.31 and 0.79: range “B”) | B (values between 0.31 and 0.79: range “B”) | A (between 0.80 and 1.40: range “A”) | 5.01 to 20 nM | – |
| CCNc1cc(C2(Cc3nncn3C)COC2)cc(N2Cc3c(cc([C@@H](CSC)N4CCC[C@H](C)C4)cc3C(F)(F)F)C2=O)n1 [Compound 141B, 2-[6-(ethylamino)-4-{3-[(4-methyl-1,2,4-triazol-3-yl)methyl]oxetan-3-yl}pyridin-2-yl]-6-[(1s)-1-[(3S)-3-methylpiperidin-1-yl]-2-(methylsulfanyl)ethyl]-4-(trifluoromethyl)-3H-isoindol-1-one] | C (values between 0.10 and 0.30: range “C”) | B (values between 0.31 and 1.00: range “B;”) | B (values between 0.31 and 1.00: range “B;”) | A (values between 0.81 and 1.10: range “A”) | A (values between 0.81 and 1.10: range “A”) | B (values between 0.31 and 0.79: range “B”) | B (values between 0.31 and 0.79: range “B”) | B (values between 0.31 and 0.79: range “B”) | 5.01 to 20 nM | – |
| CSc1cc(CN2CCC[C@H](C)C2)cc2c1CN(c1cccc([C@]3(c4nncn4C)C[C@H](C)C3)c1)C2=O [Compound 150, 6-{[(3S)-3-methylpiperidin-1-yl]methyl}-4-(methylsulfanyl)-2-{3-[(1r,3s)-3-methyl-1-(4-methyl-1,2,4-triazol-3-yl)cyclobutyl]phenyl}-3H-isoindol-1-one] | B (values between 0.31 and 1.00: range “B;”) | B (values between 0.31 and 1.00: range “B;”) | A (fold over background between 1.10 and 2.00: range “A”) | C (values between 0.30 and 0.60: range “C”) | A (values between 0.81 and 1.10: range “A”) | D (values between 0.01 and 0.09: range “D.”) | C (values between 0.10 and 0.30: range “C”) | B (values between 0.31 and 0.79: range “B”) | 1 to 5 nM | C (values between 0.30 and 0.60: range “C”) |
| CC1CC(c2cccc(N3Cc4c(cc(C(CO)N5CCC[C@H](C)C5)cc4C(F)(F)F)C3=O)c2)(c2nncn2C)C1 (stereo partly drawn) [Compound 152, 6-{2-hydroxy-1-[(3S)-3-methylpiperidin-1-yl]ethyl}-2-{3-[(1r,3s)-3-methyl-1-(4-methyl-1,2,4-triazol-3-yl)cyclobutyl]phenyl}-4-(trifluoromethyl)-3H-isoindol-1-one] | C (values between 0.10 and 0.30: range “C”) | B (values between 0.31 and 1.00: range “B;”) | B (values between 0.31 and 1.00: range “B;”) | C (values between 0.30 and 0.60: range “C”) | A (values between 0.81 and 1.10: range “A”) | C (values between 0.10 and 0.30: range “C”) | C (values between 0.10 and 0.30: range “C”) | C (values between 0.10 and 0.30: range “C”) | 1 to 5 nM | C (values between 0.30 and 0.60: range “C”) |
